Reference: patent US20150359810A1, “METHODS FOR TREATING EPSTEIN-BARR VIRUS (EBV) ASSOCIATED CANCERS USING ORAL FORMULATIONS OF 5-AZACYTIDINE” (Celgene Corporation, priority 2014, published 2015)
Entries after “also recorded” stand apart in the source; their conditions may differ.

Key:
[1] = tested on: DNA methylation (LINE-1) in PBMC DNAs; experiment: LINE-1 DNA methylation in PBMC DNAs of patients; type: in vivo, human; details: Arm C patients, 200 mg oral AZA alone; Days 1, 8, and 15 of 21-day cycle
Procedure: In one embodiment, PBMC DNA was used for assessing changes in DNA methylation, using assays such as LINE-1 methylation, %5 mdC mass spec, Infinium® Methylation27 Array, and Infinium® Methylation450 Array. In one study, DNA methylation (LINE-1) in PBMC DNAs from patients in clinical studies described in Example 1, dosed with 200 mg oral AZA alone or in combination with CDBCA or ABX, was measured on Days 1, 8, and 15 of 21-day cycle. […] In one study, %5 mdC in PBMC DNAs from patients in clinical studies described in Example 1, dosed with 200 mg oral AZA alone or in combination with CDBCA or ABX, was measured on Days 1, 8, and 15 of 21-day cycle. In one study, methylation levels were measured on Days 1, 8, and 15 of 21-day cycle using Infinium® Methylation27 Array (patients dosed with 200 mg oral AZA alone or in combination with CDBCA or ABX) and density profiles of average methylation levels were analyzed. […] In another study, methylation levels were measured using Infinium® Methylation450 Array (patients dosed with 300 mg oral AZA alone or in combination with CDBCA or ABX) and density profiles of average methylation levels were analyzed, as well as % change of hypermethylated loci (beta >0.7) upon treatment.

DNA methylation in PBMCs = DNA methylation in PBMCs of patients by Infinium Methylation27/Methylation450 Array; type: in vivo, human; details: Arm C alone; for patients with DNA hypomethylation in PBMCs: Arm A with CBDCA
[2] = PK exposure of AZA in patients of the clinical study; type: in vivo; details: human, plasma; oral AZA 200 mg or 300 mg, alone or in combination; read-out: AUCinf of patients in whom decreases in DNA methylation were observed
[3] = tested on: EBV proteins EBNA1, EBNA2, Zta, and LMP1 in Ramos cell line; experiment: EBV protein expression by Western blotting in Ramos cell line; type: cell-based, Epstein-Barr virus; details: AZA once a day for 1 or 2 days, cells collected on day 6, listed as AZA
Procedure: Assay Procedure: The RAEL and Ramos Burkitt's lymphoma cell lines were treated with vehicle (water) or AZA once a day (qd) for the number of days indicated in FIG. 6 and FIG. 15. For the experiment described in FIG. 6, cells were collected on days 1 through 9 (singlicate sample per condition per time point); at each time point, an aliquot of cells was used to purify deoxyribonucleic acid (DNA) (DNeasy Blood & Tissue Kit; Qiagen; Valencia, Calif.) for EBV DNA (Z and R promoters) methylation analysis (FIG. 7; FIG. 8) at EpigenDx (Hopkinton, Mass.), while a second aliquot of cells was lysed in QuantiGene Lysis Buffer for gene expression analysis (FIG. 9 to FIG. 14) using the QuantiGene Multiplex 2.0 assay (Affymetrix; Santa Clara, Calif.). The pyrosequencing assay used at EpigenDx to assess the methylation status of cytosine-phosphate-guanine dinucleotides (CpGs) 1-3 of the EBV Z promoter (Li L, Su X, Choi G, Cao Y, Ambinder R, Tao Q. Methylation profiling of Epstein-Barr virus immediate-early gene promoters, BZLF1 (EBV gene encoding for the Zta transcription factor) and BRLF1 (EBV gene encoding for the Rta transcription factor) in tumors of epithelial, NK- and B-cell origins. BMC Cancer 2012 Mar. 29; 12:125) was ADS3981-FS1, while that for CpGs 16-20 of the EBV R promoter (Li, 2012) was ADS3984-FS2. […]

[4] = tested on: EBV proteins EBNA1, EBNA2, Zta, and LMP1 in RAEL cell line; experiment: EBV protein expression by Western blotting in RAEL cell line; type: cell-based, Epstein-Barr virus; details: cells collected on day 6
EBNA1 = experiment: EBV gene expression in RAEL cells, QuantiGene Multiplex 2.0 assay; type: cell-based, Epstein-Barr Virus; details: 0.3 μM AZA once a day for 4 days, days 1 through 9, listed as AZA
Procedure: (§1) Assay Procedure: The RAEL and Ramos Burkitt's lymphoma cell lines were treated with vehicle (water) or AZA once a day (qd) for the number of days indicated in FIG. 6 and FIG. 15. For the experiment described in FIG. 6, cells were collected on days 1 through 9 (singlicate sample per condition per time point); at each time point, an aliquot of cells was used to purify deoxyribonucleic acid (DNA) (DNeasy Blood & Tissue Kit; Qiagen; Valencia, Calif.) for EBV DNA (Z and R promoters) methylation analysis (FIG. 7; FIG. 8) at EpigenDx (Hopkinton, Mass.), while a second aliquot of cells was lysed in QuantiGene Lysis Buffer for gene expression analysis (FIG. 9 to FIG. 14) using the QuantiGene Multiplex 2.0 assay (Affymetrix; Santa Clara, Calif.). The pyrosequencing assay used at EpigenDx to assess the methylation status of cytosine-phosphate-guanine dinucleotides (CpGs) 1-3 of the EBV Z promoter (Li L, Su X, Choi G, Cao Y, Ambinder R, Tao Q. Methylation profiling of Epstein-Barr virus immediate-early gene promoters, BZLF1 (EBV gene encoding for the Zta transcription factor) and BRLF1 (EBV gene encoding for the Rta transcription factor) in tumors of epithelial, NK- and B-cell origins. BMC Cancer 2012 Mar. 29; 12:125) was ADS3981-FS1, while that for CpGs 16-20 of the EBV R promoter (Li, 2012) was ADS3984-FS2.
(§2) The RAEL EBV^+ Burkitt's lymphoma cell line was treated with vehicle or 0.3 μM AZA once a day for 4 days (FIG. 6). Cells were harvested on days 1 through 9 to assess the effects of AZA on EBV promoter (Zp and Rp) methylation, as well as EBV gene expression. […] Zp and Rp methylation remained low for the remainder of the experiment, even in the absence of continued AZA treatment (FIG. 7; FIG. 8). In parallel with the effects of AZA on EBV promoter methylation, AZA induced expression of EBV genes.

LMP1 = experiment: as above; type: cell-based, Epstein-Barr Virus; details: 0.3 μM AZA once a day for 4 days, days 1 through 9, listed as AZA
Procedure: as §1, §2

BLLF1 = experiment: as above; type: cell-based, Epstein-Barr Virus; details: 0.3 μM AZA once a day for 4 days, days 1 through 9
Procedure: as §1, §2

BRLF1 = experiment: as above; type: cell-based, Epstein-Barr Virus; details: 0.3 μM AZA once a day for 4 days, days 1 through 9, listed as AZA
Procedure: as §1, §2

EBNA2 = experiment: as above; type: cell-based, Epstein-Barr Virus; details: 0.3 μM AZA once a day for 4 days, days 1 through 9, listed as AZA
Procedure: as §1, §2

BHRF1 = experiment: as above; type: cell-based, Epstein-Barr Virus; details: 0.3 μM AZA once a day for 4 days, days 1 through 9, listed as AZA
Procedure: as §1, §2

[5] = tested on: EBV R promoter (CpGs 16-20); experiment: EBV promoter methylation by pyrosequencing in RAEL cells (R promoter); type: cell-based, Epstein-Barr Virus
Procedure: as §1, §2

higher-risk MDS = details: Phase III study; administered subcutaneously; subjects with higher-risk MDS; cited from earlier work
Zta = details: RAEL cells; 72 hours; AZA 0.3 or 1.0 uM, ROMI 0.5, 1.0, or 2.0 nM, or combination
[6] = tested on: EBV Z promoter (CpGs 1-3); experiment: EBV promoter methylation by pyrosequencing in RAEL cells (Z promoter); type: cell-based, Epstein-Barr Virus
Procedure: as §1, §2

[7] = RAEL EBV+ Burkitt's lymphoma cell line, 0.3 μM AZA once a day for 4 days, harvested days 1 through 9, listed as AZA
[8] = RAEL, 0.3 μM AZA once a day for 4 days
[9] = RAEL, after 0.3 μM AZA once a day for 4 days, up to day 9

Structure (SMILES): Nc1ncn([C@@H]2O[C@H](CO)[C@@H](O)[C@H]2O)c(=O)n1 [5-azacytidine, 4-amino-1-β-D-ribofuranosyl-1,3,5-triazin-2(1H)-one]
- DNA methylation (LINE-1) in PBMC DNAs [1]: Decreases in LINE-1 methylation were observed for two patients
- change in DNA methylation in PBMCs upon treatment (Infinium Methylation27 Array, density profiles of average methylation levels) (DNA methylation in PBMCs; 200 mg oral AZA, Arm A with CDBCA, Arm B with ABX, Days 1, 8, and 15 of 21-day cycle): decreases in hypermethylated loci (beta >0.7) were observed
- patients with DNA hypomethylation in PBMCs (DNA methylation in PBMCs; 200 mg oral AZA, Arm B with ABX): 5/6
- patients with DNA hypomethylation in PBMCs (DNA methylation in PBMCs; 300 mg oral AZA): 3/3
- AUC(0-inf) [2]: > 0.35 µg·h/mL
- expression of the EBV proteins EBNA1, EBNA2, Zta, and LMP1 [3]: not in the EBV-negative (EBV−) Ramos
- expression of the EBV proteins EBNA1, EBNA2, Zta, and LMP1 ([4]; RAEL (EBV+) cell line, AZA once a day for 1 or 2 days, listed as AZA): induces expression of EBV proteins; also recorded: dose-dependently induced expression
- induction of EBV proteins, AZA for 2 days compared with AZA for 1 day ([4]; RAEL, Western blotting): greater induction of EBV proteins
- ribonucleic acid expression of EBNA1 (EBNA1): strongly induced expression
- ribonucleic acid expression of LMP1 (LMP1): strongly induced expression
- ribonucleic acid expression of BLLF1 (BLLF1): did not affect the expression of BLLF1 as much as other genes
- ribonucleic acid expression of BRLF1 (BRLF1): strongly induced expression
- ribonucleic acid expression of EBNA2 (EBNA2): strongly induced expression
- ribonucleic acid expression of BHRF1 (BHRF1): strongly induced expression
- Rp methylation [5, 7]: causes the demethylation; also recorded: precipitously decreased
- time to maximal hypomethylation of Rp [5, 8]: ≤ 4 days
- Rp methylation for the remainder of the experiment, in the absence of continued AZA treatment [5, 9]: remained low
- survival and time to AML transformation or death (higher-risk MDS): significantly prolonged survival and time to AML transformation or death
- Zta expression (Zta band intensity with GAPDH as house-keeping protein) (Zta): slight increase in Zta expression
- Zp methylation [6, 7]: causes the demethylation; also recorded: precipitously decreased
- time to maximal hypomethylation of Zp [6, 8]: ≤ 4 days
- Zp methylation for the remainder of the experiment, in the absence of continued AZA treatment [6, 9]: remained low
